How the values were obtained:
Assay type in all cases: cell-based
[1] = biological target: T1, Transient receptor potential vanilloid member 1 (TRPV1) (Rattus norvegicus, UniProt O35433); assay: two-electrode voltage clamp in Xenopus oocytes expressing TRPV1, inhibition of capsaicin-induced current
T1 construct: Rat TRPV1 cDNA (NM_031982)

[2] = biological target: T2, Transient receptor potential vanilloid member 1 (TRPV1) (Rattus norvegicus, UniProt O35433, N628A); assay: two-electrode voltage clamp in Xenopus oocytes expressing mutant TRPV1, inhibition of capsaicin-induced current (reduced maximum inhibition); conditions: read-out: Hill Equation / y = Vmin + (Vmax - Vmin) × x^n/(k^n x^n) / Value
T2 construct: Rat TRPV1 cDNA (NM_031982), N628A

[3] = biological target: T1, Transient receptor potential vanilloid member 1 (TRPV1); assay: two-electrode voltage clamp in Xenopus oocytes expressing TRPV1, inhibition of current (reference antagonist)

T1 sequence (O35433 whole entry): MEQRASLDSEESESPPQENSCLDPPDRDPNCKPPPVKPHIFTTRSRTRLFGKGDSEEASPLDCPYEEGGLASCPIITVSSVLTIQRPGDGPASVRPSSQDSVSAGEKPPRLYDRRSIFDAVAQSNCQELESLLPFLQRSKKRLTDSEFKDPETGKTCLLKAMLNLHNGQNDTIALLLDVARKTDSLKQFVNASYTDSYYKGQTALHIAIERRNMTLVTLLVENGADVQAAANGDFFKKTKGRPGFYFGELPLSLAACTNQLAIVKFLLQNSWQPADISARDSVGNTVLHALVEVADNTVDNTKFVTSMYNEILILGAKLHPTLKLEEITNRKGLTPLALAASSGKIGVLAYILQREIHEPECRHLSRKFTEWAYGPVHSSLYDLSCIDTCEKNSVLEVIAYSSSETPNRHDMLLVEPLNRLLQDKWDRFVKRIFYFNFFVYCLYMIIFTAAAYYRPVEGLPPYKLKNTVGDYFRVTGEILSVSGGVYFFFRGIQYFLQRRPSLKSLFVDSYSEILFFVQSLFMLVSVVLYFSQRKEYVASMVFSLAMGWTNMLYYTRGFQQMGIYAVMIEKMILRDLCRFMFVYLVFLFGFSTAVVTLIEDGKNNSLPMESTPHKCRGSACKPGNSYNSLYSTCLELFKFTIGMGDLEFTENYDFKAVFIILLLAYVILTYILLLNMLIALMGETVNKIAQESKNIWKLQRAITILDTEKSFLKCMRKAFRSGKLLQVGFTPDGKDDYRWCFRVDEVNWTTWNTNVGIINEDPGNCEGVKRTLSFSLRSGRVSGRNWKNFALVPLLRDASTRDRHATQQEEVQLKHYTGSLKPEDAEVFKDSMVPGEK
T2 sequence (O35433 whole entry N628A): as the sequence (O35433 whole entry) above, with N628A counted along it

Compound | IC50 [1] [µM] | IC50 [2] [µM] | IC50 [3] [µM]
C[C@@H]1O[C@@H](O[C@H]2[C@H](Oc3cc(O)c4c(c3)O[C@H](c3ccc(O)cc3)CC4=O)O[C@H](CO)[C@@H](O)[C@@H]2O)[C@H](O)[C@H](O)[C@H]1O [naringin] | 33.3 | 24.2 | 
Oc1cc2c(cc1O)CN(C(=S)NCCc1ccc(Cl)cc1)CCC2 [capsazepine] |  |  | 10.1
